Marks after values point to notes of the source that are not given here.
Key:
H. nana [1] = experiment: Intestinal histopathology (H&E) in H. nana-infected rats; format: in vivo, Hymenolepis nana
Experimental: (§1) The rats were males weighing 120–150 g and were free of parasitic infections. The rats were housed in a specific pathogen-free environment under standard conditions (22 ± 2 °C and 50–60% humidity) and were supplied food and water ad libitum. Rats of groups I-V were inoculated with shell-free eggs via the oral route using a stomach tube. Each animal received 3000 eggs in 0.1 mL of PBS pH 7.4. At day 16th post infection, a fecal examination was carried out and egg count per gram was detected using the McMaster technique. Group I was used as the infected non-treated control group. […] Animals of group VI were used as the non-infected non-treated control group. […] All procedures for agent administration, blood and tissue manipulation were in accordance with the Guide for the Care and Use of Laboratory Animals (8th edition) published in 2011 by the United States National Academy of Sciences.
Intestines of rats from different groups were gathered and instantly fixed for 24 h in neutrally buffered 10% formalin. Wet tissue sections were dehydrated through a series of alcohols and embedded in paraffin. Serial 4 μm thick cuts were made on all paraffin blocks by rotatory microtome. Thereafter, the cuts were fixed on glass slides and the paraffin was removed. […]

[2] = cited from earlier work
[3] = Oral pharmacokinetics in rats, LC-MS/MS, non-compartmental analysis; conditions: male, Wistar, rat, 12.5 mg/kg
Experimental: Twelve male Wistar rats (120–150 g), procured from the animal facility of the Research Institute of Ophthalmology (Giza, Egypt), were arbitrarily allocated into two groups of six rats each. The polyacrylic cages, which the rats were lodged in, were maintained under controlled temperature (22 ± 2 °C) and relative humidity (55 ± 5%), in the presence of day and night cycled over 12 h intervals. The animals were provided with tap water ad libitum and standard forage till the night before dosing was commenced so that a 12 h starvation period was allowed. […] Next, centrifugation at 4000 rpm was directly applied to the tubes for 10 min in order to collect plasma. The isolated plasma samples were stored at −20 °C pending assay. The current study was reviewed and approved by our institutional Animal Ethics Committee of Beni-Suef University (protocol approval code: REC-A-PhBSU-20015).
A liquid chromatography–tandem mass spectrometry (LC–MS/MS) method was employed to assay the gathered plasma samples for PRZ. An Agilent eclipse C18 column (Agilent Technologies, Santa Clara, CA, USA) with the dimensions of 3.5 µm × 4.6 mm × 100 mm was employed for chromatographic separation utilizing the isocratic elution technique. The mobile phase, consisted of methanol and 0.1% formic acid (85:15, v/v), was delivered at a flow rate of 0.8 mL/min (split ratio 1/1). A sample injection volume of 10 µL was utilized. The temperatures of the column and autosampler oven were set to 40 °C and 15 °C, respectively. Electrospray ionization (ESI) in the positive mode was used for the operation of the mass spectrometer. Nitrogen was employed as the auxiliary and nebulizer gas. Source temperature, nebulizer gas, curtain gas and heater gas (i.e., the principal operation parameters) were adjusted at 500 °C, 60 psi, 25 psi and 60 psi, respectively. The ion spray voltage was tuned at 5500 V. Entrance potential, declustering potential, collision energy and collision exit potential (i.e., the compound parameters) were 10, 130, 15, 20 V for PRZ and 10, 91, 29, 12 V for diazepam as an internal standard (IS), respectively. Quantification was performed in the multiple reactions monitoring mode with m/z 313.18 → 203.10 for PRZ and m/z 285.31→193.00 for IS. Operation of the detector was at 1900 V. Analytical data processing was carried out through Analyst software (Version 1.4.2, Applied Biosystems, MDS SCIEX, Concord, ON, Canada).
A procedure based on liquid–liquid extraction was utilized. Briefly, to a plasma sample (100 µL), 10 µL of IS solution (50 ng/mL) was spiked and 1 mL of methyl-ter-butyl ether was added. The mixture was vortexed for 30 s to ensure homogeneity and then centrifugation at 3000 rpm was applied for 10 min. Into a conical glass tube, the transparent supernatant was transmitted and left at ambient temperature until the organic layer was entirely evaporated. The residues resulting from the evaporation process were then dissolved in the mobile phase and 10 µL of the solution was subsequently injected through the autosampler.
The non-compartmental pharmacokinetic analysis function built into the Excel Add-In software, PK Solver, was employed to analyze the time course of the PRZ concentration in rat plasma for estimation of pharmacokinetic parameters. The software assesses the maximal drug concentration (Cmax, ng/mL) and elapsed time to attain such concentration (Tmax, h) directly from the plasma concentration–time curve. The software adopts the trapezoidal rule method for quantifying the area under the curve (AUC) from 0 to t (AUC0–t, ng h/mL) and from 0 to infinity (AUC0–∞, ng h/mL).

H. nana eggs = experiment: In vitro ovicidal activity, Fuchsin vital stain; format: cell-based, Hymenolepis nana; conditions: PRZ-PMMs finding at 50 µg/mL
Experimental: Three tubes for each concentration of each formulation were prepared. On clean glass slides, 100 µL of eggs of the different treatments were added and stained with 20 µL of freshly prepared Fuchsin for 10 min and examined under a light microscope.

[4] = In vitro release, membrane diffusion procedure, with kinetic model fitting; format: physicochemical; conditions: PBS pH 7.4 with 0.2% w/v SLS, 37 °C
Experimental: In triplicate, the release behavior of PRZ from the assembled PMMs was investigated utilizing a type 1, SR 8 Plus USP dissolution tester apparatus (Hanson Research, Chatsworth, Los Angeles, CA, USA) employing the membrane diffusion procedure. […] For establishing the sink condition, 70 mL of phosphate-buffered saline (PBS) comprising 0.2% w/v sodium lauryl sulfate (SLS) was used as the release milieu after adjusting the pH to 7.4 and setting the temperature to 37 ± 0.5 °C [27]. After fixing the filled cylinders to the USP dissolution apparatus shafts, a revolving speed of 50 rpm was applied. About 1-mL aliquots were intermittently pulled out after 0.5, 1, 2, 4, 6, 8, 12 and lastly after 24 h as prescheduled time intervals. In order to maintain the volume of the dissolution milieu at a fixed level, each aspiration was recompensed with a fresh milieu. After applying the appropriate dilution, a spectrophotometer set at λmax 263 was used to quantify PRZ in the collected samples. Afterwards, PRZ accumulative % released, as mean (±SD) values, was graphed versus time. An analogous experimentation was conducted on 2 mL of 1.5 mg/mL free PRZ aqueous suspension for comparative purposes. […] Amplification of the coefficient of determination (R^2) made the grounds for picking the most appropriate arithmetic model.

H. nana [5] = experiment: Fecal egg count and egg reduction in H. nana-infected rats; format: in vivo, Hymenolepis nana; conditions: for Percentage reduction of egg count: 1st and 3rd day after treatment; for Mean egg count, 1st day after treatment / Mean egg count, 3rd day after treatment: fecal egg count per gram (EPG), n = 10
Excerpt: (§2) Mature H. nana worms were gathered from naturally-infected Mus musculus and kept in outbred rats. Thereafter, collection of the eggs was executed from infected rats that were euthanized on day 16th post infection. Infectious shell-free eggs were produced from the gravid segments of adult worms via agitating the egg suspension with 3 mm-diameter glass beads shortly prior to use.
as §1
Fecal egg count per gram (EPG) was estimated in the different groups on day 21 and 23 of the experiment. Fecal egg reduction percentage was calculated based on the formula [34]: Fecal egg reduction percentage=EPG before treatment−EPG post treatment/EPG before treatment×100

H. nana [6] = experiment: Worm burden and worm reduction in H. nana-infected rats; format: in vivo, Hymenolepis nana; conditions: for Percentage reduction of worm count: rats; for Worm count: worm numbers per rat, 23rd day, n = 10
Excerpt: as §2, §1
On the 23rd day of the experiment, the rats were euthanized and the small intestines were removed. The small intestines were longitudinally dissected and the worm burdens were assessed.

[7] = cited from earlier work; remark: listed apart in the source
[8] = single oral dose 25 mg/kg, 25 mg/kg
[9] = single oral dose 25 mg/kg, listed as crude PRZ, 25 mg/kg

O=C(C1CCCCC1)N1CC(=O)N2CCc3ccccc3C2C1 (stereo not shown) [Crude PRZ, praziquantel]
Intestinal histopathology, parasitic sections (H. nana [1]; 12.5 mg/kg oral): submucosal granulomatous reaction in association with the detected parasitic sections
Intestinal histopathology, parasitic sections (H. nana [1]; 25 mg/kg oral): no parasitic sections
Terminal half-life [2]: 1 to 1.5 h
half-life ([3]; in vivo): 1.11 ± 0.04 h
AUC(0-inf) ([3]; po): 566 ± 102 ng·h/mL
AUC(0-t) ([3]; po): 390 ± 95.3 ng·h/mL
Cmax ([3]; po): 290 ± 28.5 ng/mL
MRT ([3]; po): 3.05 ± 0.46 h
Tmax ([3]; po): 0.24 ± 0.03 h
k el ([3]; po): 0.000173 s⁻¹
Morphological changes of the eggs (H. nana eggs): mild shell deformities and embryo damage
Accumulative % released at 1 h [4]: 98.81 ± 5.94%
Percentage reduction of egg count (H. nana [5]; single oral dose 12.5 mg/kg): 90.6–91.1%
Reduction of eggs output in feces (H. nana [5]; single oral dose 12.5 mg/kg, 21st day): 90.6%
Reduction of eggs output in feces (H. nana [5]; single oral dose 12.5 mg/kg, 23rd day): 91.1%
Mean egg count, 1st day after treatment (H. nana [5]; single oral dose 12.5 mg/kg): 1033.20 ± 40.83 ^a,b,d,e
Mean egg count, 3rd day after treatment (H. nana [5]; single oral dose 12.5 mg/kg): 966.60 ± 40.83 ^a,b,d,e
Percentage reduction of egg count (H. nana [5]; [8]): 100%
Percentage reduction of egg count (H. nana [5]; [9]): 100%
Mean egg count, 1st day after treatment (H. nana [5]; single oral dose 25 mg/kg): 0.00 ± 0.00 ^a,c
Mean egg count, 3rd day after treatment (H. nana [5]; single oral dose 25 mg/kg): 0.00 ± 0.00 ^a,c
Percentage reduction of worm count (H. nana [6]; single oral dose 12.5 mg/kg, 12.5 mg/kg): 73.3%
Percentage reduction of worm count (H. nana [6]; single oral dose 12.5 mg/kg, listed as crude PRZ, 12.5 mg/kg): 73.3%
Percentage reduction of worm count (H. nana [6]; [8]): 100%
Percentage reduction of worm count (H. nana [6]; [9]): 100%
Worm count (H. nana [6]; single oral dose 12.5 mg/kg): 16.60 ± 1.14 ^a,b,d,e
Worm count (H. nana [6]; single oral dose 25 mg/kg): 0.00 ± 0.00 ^a
Intrinsic hydrosolubility [7]: ~ 0.3 mg/mL
